The source of these data is patent publication US11938200B2, “Non-nutritive sweeteners and polyols as imaging agents” (THE TRUSTEES OF THE UNIVERSITY OF PENNSYLVANIA, priority 2016, dated 2024).

For one experiment, the system named is rat brain tumor. Briefly: SWEETEST (CEST) MRI, sucralose injection studies in a rat brain tumor. The format is in vivo. Particulars: sucralose 300 mM via tail vein, 40 minute post injection, vs baseline. How it is done: (§1) Different concentration of Splenda and sucralose were prepared in PBS and all the experiments were performed at 37° C. on a 9.4 T horizontal bore small animal MR scanner (Varian, Palo Alto, CA). CEST images were acquired at different saturation power and saturation lengths from frequency offset −5 to 5 ppm in step size of 0.1 ppm. Acquired CEST images were corrected for B0 and used to generate CEST contrast map using Equation [1].
(§2) [formula] where S−ve and S+ve are the B0 corrected MRI signals obtained at −1 ppm and +1 ppm respectively, and S0 is the image obtained without any saturation. CEST contrast was further corrected for B1 and mapped as false-colors onto anatomical proton image. The CEST asymmetry plots were generated by plotting the relative water signal difference at frequency offset from 0 to 4.8 ppm. • FIG. 1: Z-spectra (A), asymmetry plot (B), and CEST map (C) of CEST effect from 0.5% Splenda. […]
(§3) Imaging was performed in tumor-bearing animals at a 9.4 T horizontal bore Varian system. […] Respiration and body temperature were continuously monitored using a MRI-compatible small animal monitor system (SA Instruments, Inc., Stony Brook, NY). CEST imaging was performed using a custom-programmed, segmented radiofrequency GRE readout pulse sequence, with a frequency selective continuous wave saturation preparation pulse. […]

The test system of a further experiment is mouse tumors. Briefly: CEST MRI of tumor-bearing animals before and after sucralose injection. The format is in vivo. As to conditions: tumor region; sucralose 100 mM intra peritoneally; at 40 minutes; vs baseline. How it is done:
as §1, §2, §3

SMILES strings stand for the structures.

On to `OC[C@H]1O[C@H](O[C@]2(CCl)O[C@H](CCl)[C@@H](O)[C@@H]2O)[C@H](O)[C@@H](O)[C@H]1Cl` [sucralose], for which the “increase in SWEETEST contrast” value with rat brain tumor was ~80%. Besides, in the experiment on mouse tumors, the “percent change in the contrast post injection of sucralose” value is “about 100%”.
